# What was measured:
# [1] = tested on: dark-adapted bullfrog retinas (rods); assay: Pyroelectric calorimetry and transretinal voltage of flash-stimulated dark-adapted retinas; type: cell-based, bullfrog (R. catesbiana)
# Procedure: Dark-adapted bullfrog (R. catesbiana) retinas, removed under infrared illumination, were stored for 10 min to 1 hr in an oxygenated bath containing (in mM) Na^+ : 100, K^+ : 2.7, Ca^++ : 1.4, Mg^++ : 0.5, phosphate: 0.5, HEPES: 10, glucose: 11, EDTA: 0.01, pH 7.1. Cl^- was the main anion. Disks 6.3 mm. across were cut from a retina and attached by their vitreal surfaces to 25 μm. thick nylon mesh (Small Parts, Ltd., Miami, Fla.) disks of the same diameter.
# Before use, each disk was soaked for 5 min in a medium containing 10 mM glutamate and 5 mM cysteine to suppress electrical responses from all retinal cells except the rods, cones and glial Muller cells. Using an infrared viewer, the disks were placed on the detector with receptor layer down and excess fluid was blotted away. Flowing moist oxygen replaced the atmosphere every 2 m.
# 6 μs flashes of spectral width 70 nm. centered at 500, 550 or 640 nm. from a Xenon flash tube were attenuated by a circular graded wedge and fed via a light pipe whose end was projected to a 6 mm circle at the retina. A computerized stepping motor turned the wedge so that flashes of varying intensity could be quickly delivered. The light input at the retina was measured with a silicon photovoltaic diode (International Light, Inc., Newburyport, Mass.). Exposures of the OS were calculated for a rod density in the retinal mosaic of 1.76×10^6 cm^-2. Cone and green rod pigments were neglected and rod porphyropsin was lumped with rhodopsin. Assuming the quantum efficiency of rhodopsin photoisomerization to be 0.6 and its molar absorbance at 550 nm to be 2.0×10^4 M^-1 cm^-1, its isomerization cross section ZR was 4.6×10^-17 cm^2.
# In retinas incubated in glutamate Ringer containing […] and a ql of 1-2 μK followed by steady cooling lasting for more than 20 s. or until the dark current resumed. A second flash while the dark current was suppressed (as judged by the absence of change in Vr) gave no ql and no change in rl. In 30 experiments, Vr responses, whose amplitudes corresponded to dark currents of 20-50 pA/rod, were accompanied by ql bursts of 0.8 to 2 μK (mean ±s.e.e.: 1.09±0.05, n=24) while rl varied from -2 to -5 μKs^-1.
# ql was unchanged by several agents that suppressed the dark current and changed rl. In this regard, the effects of flashes causing 180 PI/rod on retinal temperature and transretinal voltage were studied with an average of 2-4 trials with 60 s intervals between flashes, during which ql recovered. 30 mM ca^++ in the incubation fluid reduced Vr sixfold and changed rl 's sign while ql remained […] (n=4) μK. […] Nevertheless, a 180 PI/OS flash produced a ql of 1.6±0.1 (n=3) μK and rl of 4 μK/s.
# [2] = target: cGMP-induced cationic conductance of rod outer segment membrane patches; settings: cited from earlier work
compound,measurement,setting,value
CC(C)Cn1c(=O)n(C)c(=O)c2[nH]cnc21 [IBMX],Vr (transretinal voltage response),"[1]; 500 IBMX, 180 PI/rod",suppressed
same,ql (fast heat burst),"[1]; 500 IBMX, 180 PI/rod",suppressed
same,Vr (transretinal voltage response),"[1]; 500 IBMX, tenfold brighter flashes",slow Vr waves
same,ql (delayed heat),"[1]; 500 IBMX, tenfold brighter flashes, n=6",2.1±0.1 μK
Nc1nc2c(ncn2[C@@H]2O[C@@H]3COP(=O)(O)O[C@H]3[C@H]2O)c(=O)[nH]1 [cGMP],Kd,"[2]; membrane patch conductance vs free [cGMP], various studies, read-out: dissociation constant Kc",10 to 42 µM
same,concentration at which the cationic conductance of outer segment membranes increases rapidly and reversibly,[2]; outer segment membranes,> 5 µM
c1c[nH]cn1 [imidazole],ql (fast heat burst),"[1]; 20 mM imidazole in incubation medium, n=3",2.4±0.4 μK
C[C@@H]1O[C@@H](O[C@H]2C[C@@H](O)[C@]3(CO)[C@H]4[C@H](O)C[C@]5(C)[C@@H](C6=CC(=O)OC6)CC[C@]5(O)[C@@H]4CC[C@]3(O)C2)[C@H](O)[C@H](O)[C@H]1O [ouabain],Vr (transretinal voltage response),"[1]; 50 μM ouabain, 10 m. incubation",no Vr
same,rl (steady heat flux),"[1]; 50 μM ouabain, 180 PI/OS flash",4 μK/s
same,ql (fast heat burst),"[1]; 50 μM ouabain, 180 PI/OS flash, n=3",1.6±0.1 μK
